Data from patent US12728119B2, “Pharmaceutical composition for preventing or treating cancer comprising 3-ketoacyl CoA thiolase inhibitor and carnitine acylcarnitine carrier inhibitor” (NATIONAL CANCER CENTER, priority 2020, dated 2026).
Several values for one entry are separate records, joined by “and”; a condition that tells them apart may be missing. Equal entries are not always repeated.

Key:
Assay in all cases: SRB analysis 2
Assay type in all cases: cell-based
[1] = tested on: SW1990 pancreatic cancer cells; conditions: 48 hours
Experimental: (§1) The SRB assay was performed as follows: each cell line (100 μl) was seeded into 96-well microtiter plates at densities ranging from 5,000 to 20,000 cells/well depending on the doubling time of each cell line. After cell seeding, microtiter plates were incubated for 24 h before addition of experimental drug. Drugs were prepared at the indicated concentrations and 100 μl was added to each well; The plates were then incubated in a CO2 incubator. Then, cold TCA was added to terminate the assay. Cells were fixed in situ by gentle addition of 50 μl of cold 50% (w/v) TCA (final concentration: 10% TCA) and incubated at 4° C. for 60 min. The supernatant was discarded and the plate was washed 5 times with tap water and then air dried. A solution (100 μl) of 0.4% (w/v) SRB (Sulforhodamine B) in 1% acetic acid was added to each well, and the plate was left at room temperature for 10 minutes. After staining, the plates were air dried after washing 5 times with 1% acetic acid to remove unbound dye. The bound dye was then solubilized with 10 mM trizma base and the absorbance was recorded at 515 nm using an automated plate reader.

[2] = tested on: AsPC-1 pancreatic cancer cells; conditions: 48 hours
Experimental: as §1

[3] = tested on: SNU-213 pancreatic cancer cells; conditions: SNU213, 48 hours
Experimental: as §1

[4] = tested on: MIA PaCa2 pancreatic cancer cells; conditions: MIA PaCa-2, 48 hours
Experimental: as §1

[5] = tested on: Panc-1 pancreatic cancer cells; conditions: 48 hours
Experimental: as §1

[6] = tested on: SU.86.86 pancreatic cancer cells; conditions: 48 hours
Experimental: as §1

[7] = tested on: BxPC-3 pancreatic cancer cells; conditions: 48 hours
Experimental: as §1

[8] = tested on: SNU-324 pancreatic cancer cells; conditions: SNU324, 48 hours
Experimental: as §1

In the case of `Cc1c(OCC(F)(F)F)ccnc1C[S+]([O-])c1nc2ccccc2[nH]1` (centres unmarked) [KN511, lansoprazole], the “degree of cell growth based on the control (100%)” value (shortened to “degree … (100%)”) ([1]; KN511 50 μM) is reported as 2.62% and 7.49%, the “degree … (100%)” value ([1]; KN511 100 μM) is reported as −25.25% and the “degree … (100%)” value ([2]; KN511 50 μM) is reported as 44.46% and 38.02%. For the same molecule, the “degree … (100%)” value ([2]; KN511 100 μM) was 20.33% and 14.98%, the “degree … (100%)” value ([3]; KN511 50 μM) was 46.12% and 49.55% and the “degree … (100%)” value ([4]; KN511 50 μM) was 72.22% and 68.24%. The “degree … (100%)” value ([4]; KN511 100 μM) was 24.61% and 16.12%, the “degree … (100%)” value ([5]; KN511 50 μM) was 65.77% and 39.30% and the “degree … (100%)” value ([6]; KN511 50 μM) was 44.93% and 31.47%. The “degree … (100%)” value ([7]; KN511 50 μM) was 30.51% and 41.39%, the “degree … (100%)” value ([7]; KN511 100 μM) was −4.87% and −1.66% and the “degree … (100%)” value ([8]; KN511 50 μM) was 16.15% and 17.09%. The “degree … (100%)” value ([8]; KN511 100 μM) was 4.93% and 8.06%.
`COc1ccnc(C[S+]([O-])c2nc3ccc(OC(F)F)cc3[nH]2)c1OC` (centres unmarked) [KN512, pantoprazole] was tested, and the “degree … (100%)” value ([1]; KN512 100 μM) was 70.30% and 73.00%, the “degree … (100%)” value ([1]; KN512 200 μM) was 25.58% and 41.93% and the “degree … (100%)” value ([2]; KN512 100 μM) was 64.75% and 71.27%. For the same molecule, the “degree … (100%)” value ([2]; KN512 200 μM) was 23.37% and 25.43%, the “degree … (100%)” value ([3]; KN512 100 μM) was 66.09% and 59.49% and the “degree … (100%)” value ([3]; KN512 200 μM) was 36.60% and 51.18%. For the same molecule, the “degree … (100%)” value ([4]; KN512 100 μM) was 62.60% and 66.74%, the “degree … (100%)” value ([4]; KN512 200 μM) was 5.82% and 1.98% and the “degree … (100%)” value ([5]; KN512 100 μM) was 54.90% and 57.01%. For the same molecule, the “degree … (100%)” value ([5]; KN512 200 μM) was 6.03% and 12.81%, the “degree … (100%)” value ([6]; KN512 100 μM) was 59.26% and 70.59% and the “degree … (100%)” value ([6]; KN512 200 μM) was 19.69% and 26.47%. The “degree … (100%)” value ([7]; KN512 100 μM) was 34.14% and 49.52%, the “degree … (100%)” value ([7]; KN512 200 μM) was −10.63% and −6.75% and the “degree … (100%)” value ([8]; KN512 100 μM) was 61.20% and 74.13%. The “degree … (100%)” value ([8]; KN512 200 μM) was 23.82% and 21.77%.
